Read-outs that look alike come from different tables or passages of the source.
Assays:
KHT tumour cells = assay: Survival of KHT tumour cells after sensitiser i.p. plus 10 Gy X-rays (KHT tumour implanted subcutaneously in C3H mice); assay type: in vivo
Procedure: In Table 2 comparison is made with 1-(2-nitro-1-imidazolyl)-3-(1-aziridino)-2-propanol (RSU-1069). All compounds were administered in phosphate buffered saline (PBS) at pH 7.4 except RB-6145 which was administered in PBS at pH 5.4.
The maximum does used was the maximum tolerated dose (MTD).

[1] = Toxicity to cells, 3 hours at 37° C., in air and in N2; assay type: cell-based; conditions: air; concentration required for a surviving fraction of 10^-1; 3 hours at 37° C.; full growth medium (bicarbonate); read-out: CAir
Procedure: (§1) ^(a) Toxicity is 3 hours at 37° C. Concentrations are those
(§2) required for a surviving fraction of 10^-1. Drugs were made up in ful
(§3) growth medium (buffered with bicarbonate) just before addition to cells.

cells [2] = assay: as above; assay type: cell-based; conditions: for CC90: read-out: CN2; for CAir/CN2: ratio of toxic concentrations, air to N2, 180 min
Procedure: as §1, §2, §3

cells [3] = assay: Sensitisation of cells, C1.6 (drugs made up in PBS at pH 7.4); assay type: cell-based; conditions: drugs made up in PBS at pH 7.4 just before addition to cells
Description: ^(b) Drugs made up in PBS at pH 7.4 just before addition to cells.

KHT tumour = assay: In vivo sensitisation, scored against RSU1069 and MISO; design: species or system C3H mice; key to the marks not given beside the values; conditions: scoring system relative to RSU1069 and MISO
Procedure: (§4) (a) C3H mice in which the KHT tumour had been implanted subcutaneously were administered RB-6145 (Example 2) intraperitoneally before treatment with radiation. The time before such treatment at which the drug was administered was such that maximum enhancement was effected. The results of such treatment are set out in Table 1 with comparison to misonidazole (MISO), etanidazole (SR 2508) and pimonidazole (Ro 03-8799). In Table 2 comparison is made with 1-(2-nitro-1-imidazolyl)-3-(1-aziridino)-2-propanol (RSU-1069). All compounds were administered in phosphate buffered saline (PBS) at pH 7.4 except RB-6145 which was administered in PBS at pH 5.4.

[4] = Maximum tolerated dose (MTD); assay type: in vivo, C3H mice; conditions: for MTD: mouse, in vivo, ip, intraperitoneal, b203: maximum dose used was the MTD, read-out: maximum tolerated dose (MTD) = maximum dose used in Table 2
Procedure: as §4
The surviving fraction for 10 Gy alone is 3×10^-2. The maximum does used was the maximum tolerated dose (MTD).

[5] = Table 1, sensitiser at a dose of 200 mg/kg and 10 Gy X-rays, NONE = 1.0
[6] = Table 1, sensitiser at a dose of 200 mg/kg and 10 Gy X-rays, intraperitoneal
[7] = N2, concentration required for a surviving fraction of 10^-1, 3 hours at 37° C., full growth medium (bicarbonate)

Row | SMILES | CC90 at 3 h [1] | CC90 (cells [2]; 3 h) | CAir/CN2 (cells [2]) | EC (enhancement ratio 1.6) (cells [3]) | in vivo sensitisation (KHT tumour) | enhancement ratio (KHT tumour cells; [5]) | surviving fraction (KHT tumour cells; [6]) | also measured
1 | COCC(O)Cn1ccnc1[N+](=O)[O-] (stereo not drawn) [MISO, misonidazole] | – | – | – | – | – | – | – | enhancement ratio (KHT tumour cells; mouse, in vivo, 200 mg/kg): 1.5; surviving fraction (KHT tumour cells; mouse, in vivo, ip, 200 mg/kg): 1.2 × 10^-2
2 | O=[N+]([O-])c1nccn1CC(O)CNCCCl (stereo not drawn) [RB-6144, 1-(2-Nitro-1-imidazolyl)-3-(2-chloroethylamino)-2-propanol] | 5000 µM | 350 µM | 15 | 250 µM | ++ | – | – | –
3 | O=[N+]([O-])c1nccn1CC(O)CNCCBr (stereo not drawn) [RB-6145, 1-(2-Nitro-1-imidazolyl)-3-(2-bromoethylamino)-2-propanol] | 2300 µM | 90 µM | 25 | 150 µM | ++++ | 2.7 | 1.8 × 10^-3 | dose-for-dose sensitisation compared with RSU-1069 (KHT tumour cells; 10 Gy X-rays): on a dose-for-dose basis it is the same as RSU-1069 as a sensitiser; surviving fraction (KHT tumour cells; Table 2, RB-6145 0.13 mmol kg^-1 (50 mg/kg) and 10 Gy X-rays): 7.6 × 10^-3; surviving fraction (KHT tumour cells; Table 2, RB-6145 0.27 mmol kg^-1 (100 mg/kg) and 10 Gy X-rays): 5.2 × 10^-3; surviving fraction (KHT tumour cells; Table 2, RB-6145 0.53 mmol kg^-1 (200 mg/kg) and 10 Gy X-rays): 1.8 × 10^-3; surviving fraction (KHT tumour cells; Table 2, RB-6145 0.80 mmol kg^-1 (300 mg/kg) and 10 Gy X-rays, 10 Gy alone 3×10^-2): 1.4 × 10^-3; doses that can be used compared with RSU-1069 ([4]; Table 2): Much higher doses of RB-6145 can be used; MTD [4]: 300 mg/kg
4 | O=[N+]([O-])c1nccn1CC(O)CNCCI (stereo not drawn) [RB-6146, 1-(2-Nitro-1-imidazolyl)-3-(2-iodoethylamino)-2-propanol] | 2400 µM | 80 µM | 30 | 300 µM | – | – | – | –
5 | O=[N+]([O-])c1nccn1CC(O)CNCCF (stereo not drawn) [RB-6159, 1-(2-Nitro-1-imidazolyl)-3-(2-fluoroethylamino)-2-propanol] | 35000 µM | – | 14 | – | – | – | – | CC90 (cells [2]; [7]): 2500 µM
6 | O=[N+]([O-])c1nccn1CC(O)CN1CC1 (stereo not drawn) [RSU-1069, 1-(2-nitro-1-imidazolyl)-3-(1-aziridino)-2-propanol] | – | – | – | – | – | – | – | surviving fraction (KHT tumour cells; 8 mg/kg): 7.6 × 10^-3; surviving fraction (KHT tumour cells; 30 mg/kg): 4.0 × 10^-3; surviving fraction (KHT tumour cells; 50 mg/kg): 3.2 × 10^-3; surviving fraction (KHT tumour cells; 80 mg/kg): 1.6 × 10^-3; MTD [4]: 80 mg/kg
7 | O=[N+]([O-])c1nccn1CC(O)CNCCO (stereo not drawn) [RSU-1137, 1-(2-nitro-1-imidazolyl)-3-(2-hydroxyethylamino)-2-propanol, reference compound] | 70000 µM | – | 20 | 450 µM | ++ | – | – | CC90 (cells [2]; [7]): 3500 µM
8 | O=[N+]([O-])c1nccn1CC(O)CN1CCCCC1 (stereo not drawn) [Ro03-8799, pimonidazole] | – | – | – | – | – | 1.0 | 3 × 10^-2 | –
9 | O=C(Cn1ccnc1[N+](=O)[O-])NCCO [SR 2508, etanidazole] | – | – | – | – | – | 1.6 | 1.1 × 10^-2 | –

— US5098921A, “Nitro-substituted aromatic or hetero-aromatic compounds for use in cancer treatment” (National Research Development Corporation, priority 1987, dated 1992)
